In PubChem BioAssay AID330 (DTP/NCI, 2004):
“And” between values parts separate entries of the source, which are not always exact repeats. Equal entries are not always repeated. Toxic doses and inconclusive results are not listed. The calls were made as follows: active = survival T/C of 150% or more; inactive = T/C below 125% in these data.

System: P388 leukemia ip, CD2F1 mice, survival T/C
Test: NCI In Vivo Anticancer Drug Screen. Data for tumor model P388 Leukemia (intraperitoneal) in CD2F1 (CDF1) mice
Conditions: endpoint: median survival time, higher = longer survival
Outline: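 Mice carrying the transplanted tumor received test compound or vehicle. Survival was recorded in each group, and the value is the treated-group measurement divided by that of the vehicle-treated control group.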

[1] = dose: 100.0 mg/kg/injection, schedule: Q01DX009 (ip), vehicle: saline with Tween-80
[2] = dose: 200.0 mg/kg/injection, schedule: Q01DX009 (ip), vehicle: saline with Tween-80
[3] = dose: 400.0 mg/kg/injection, schedule: Q01DX009 (ip), vehicle: saline with Tween-80
[4] = dose: 25.0 mg/kg/injection, schedule: Q01DX009 (ip), vehicle: saline with Tween-80
[5] = dose: 50.0 mg/kg/injection, schedule: Q01DX005 (ip), vehicle: saline with Tween-80
[6] = dose: 100.0 mg/kg/injection, schedule: Q01DX005 (ip), vehicle: saline with Tween-80
[7] = dose: 30.0 mg/kg/injection, schedule: Q01DX005 (ip), vehicle: saline with Tween-80
[8] = dose: 60.0 mg/kg/injection, schedule: Q01DX005 (ip), vehicle: saline with Tween-80
[9] = dose: 50.0 mg/kg/injection, schedule: Q01DX009 (ip), vehicle: saline with Tween-80

Measured: T/C

CCOc1c(N=Nc2cccc(Cl)c2)c(-c2ccccc2)nn1C(=S)S
inactive: dose: 0.78 mg/kg/injection, schedule: Q01DX005 (ip), vehicle: saline with Tween-80 100 % of control | dose: 1.56 mg/kg/injection, schedule: Q01DX005 (ip), vehicle: saline with Tween-80 99 % of control | dose: 3.13 mg/kg/injection, schedule: Q01DX005 (ip), vehicle: saline with Tween-80 100 % of control | dose: 6.25 mg/kg/injection, schedule: Q01DX005 (ip), vehicle: saline with Tween-80 99 % of control and 100 % of control

COc1ccc2c(c1OC)CN(C)[C@]13ON(c4ccccc4)[C@H](C[C@]21C)c1cc2c(cc13)OCO2
inactive: dose: 100.0 mg/kg/injection, schedule: Q04DX002 (ip), vehicle: saline with Tween-80 98 % of control | dose: 200.0 mg/kg/injection, schedule: Q04DX002 (ip), vehicle: saline with Tween-80 88 % of control | dose: 400.0 mg/kg/injection, schedule: Q04DX002 (ip), vehicle: saline with Tween-80 95 % of control

COC(=O)/C(=C\C=C\c1ccccc1)NC(=O)c1ccccc1
inactive: dose: 100.0 mg/kg/injection, schedule: Q01DX001 (ip), vehicle: saline with Tween-80 100 % of control | dose: 200.0 mg/kg/injection, schedule: Q01DX001 (ip), vehicle: saline with Tween-80 96 % of control | dose: 400.0 mg/kg/injection, schedule: Q01DX001 (ip), vehicle: saline with Tween-80 89 % of control

CCCCn1c2nc(=O)[nH]c(=O)c-2[n+]([O-])c2ccccc21
inactive: dose: 25.0 mg/kg/injection, schedule: Q01DX001 (ip), vehicle: saline with Tween-80 102 % of control | dose: 50.0 mg/kg/injection, schedule: Q01DX001 (ip), vehicle: saline with Tween-80 102 % of control

CC[OH+]CC[OH+]CC[OH+]C1CCCC2CCC[N-]C21.[Cl][Cu][Cl] (configuration not stated)
inactive: dose: 6.25 mg/kg/injection, schedule: Q01DX005 (ip), vehicle: Klucel (hydroxypropylcellulose) (HPC) 97 % of control | dose: 12.5 mg/kg/injection, schedule: Q01DX005 (ip), vehicle: Klucel (hydroxypropylcellulose) (HPC) 92 % of control

CNC(C)=O
inactive: [1] 95 % of control | dose: 100.0 mg/kg/injection, schedule: Q04DX003 (ip), vehicle: saline 90 % of control | [2] 95 % of control | dose: 200.0 mg/kg/injection, schedule: Q04DX003 (ip), vehicle: saline 95 % of control | [3] 95 % of control | dose: 400.0 mg/kg/injection, schedule: Q04DX003 (ip), vehicle: saline 100 % of control

N#CC(C#N)=NO (tested in a mixture with another compound)
inactive: dose: 6.25 mg/kg/injection, schedule: Q01DX009 (ip), vehicle: saline with Tween-80 100 % of control | dose: 12.5 mg/kg/injection, schedule: Q01DX009 (ip), vehicle: saline with Tween-80 98 % of control | [4] 100 % of control | dose: 100.0 mg/kg/injection, schedule: Q01DX009 (ip), vehicle: saline 86 % of control

O=C(NO)c1ccccc1O
inactive: [1] 110 % of control | dose: 100.0 mg/kg/injection, schedule: Q04DX003 (ip), vehicle: saline with Tween-80 86 % of control | [2] 100 % of control | dose: 200.0 mg/kg/injection, schedule: Q04DX003 (ip), vehicle: saline with Tween-80 90 % of control | [3] 110 % of control | dose: 400.0 mg/kg/injection, schedule: Q04DX003 (ip), vehicle: saline with Tween-80 100 % of control

COCC#CCN(C)C
inactive: dose: 60.0 mg/kg/injection, schedule: Q01DX005 (ip), vehicle: saline 95 % of control | dose: 120.0 mg/kg/injection, schedule: Q01DX005 (ip), vehicle: saline 99 % of control | dose: 240.0 mg/kg/injection, schedule: Q01DX005 (ip), vehicle: saline 95 % of control

CC1(C)S[C@@H]2C(Cl)=C(Cl)C(=O)N2[C@H]1C(=O)O
inactive: [5] 91 % of control | [6] 91 % of control

COc1ccc2oc3c(ccc[n+]3C)c(=O)c2c1
inactive: [7] 107 % of control | [8] 120 % of control | dose: 120.0 mg/kg/injection, schedule: Q01DX005 (ip), vehicle: saline with Tween-80 107 % of control

O=C(Cc1nc2ccc(Cl)cc2nc1CC(=O)c1ccccc1)c1ccccc1
inactive: dose: 15.0 mg/kg/injection, schedule: Q01DX005 (ip), vehicle: saline with Tween-80 102 % of control | [7] 111 % of control | [8] 100 % of control and 107 % of control

CCc1nc(N)nc(N)c1-c1ccc(Cl)cc1.[O]=[Zn]
inactive: dose: 12.5 mg/kg/injection, schedule: Q04DX003 (ip), vehicle: Klucel (hydroxypropylcellulose) (HPC) 106 % of control | dose: 25.0 mg/kg/injection, schedule: Q04DX003 (ip), vehicle: Klucel (hydroxypropylcellulose) (HPC) 106 % of control | dose: 50.0 mg/kg/injection, schedule: Q04DX003 (ip), vehicle: Klucel (hydroxypropylcellulose) (HPC) 113 % of control | dose: 100.0 mg/kg/injection, schedule: Q04DX003 (ip), vehicle: Klucel (hydroxypropylcellulose) (HPC) 117 % of control

CC(=O)c1c(O)c(C)c(O)c2c1OC1=CC(=O)/C(=C(/C)N)C(=O)C12C (configuration not stated)
inactive: dose: 6.25 mg/kg/injection, schedule: Q01DX009 (ip), vehicle: gum acacia 107 % of control and 112 % of control | dose: 12.5 mg/kg/injection, schedule: Q01DX009 (ip), vehicle: gum acacia 100 % of control and 105 % of control | dose: 25.0 mg/kg/injection, schedule: Q01DX009 (ip), vehicle: gum acacia 102 % of control and 109 % of control | dose: 50.0 mg/kg/injection, schedule: Q01DX009 (ip), vehicle: gum acacia 100 % of control and 86 % of control | dose: 100.0 mg/kg/injection, schedule: Q01DX009 (ip), vehicle: gum acacia 100 % of control and 106 % of control | dose: 200.0 mg/kg/injection, schedule: Q01DX009 (ip), vehicle: gum acacia 102 % of control and 110 % of control

N/C(=N/O)NO
inactive: dose: 50.0 mg/kg/injection, schedule: Q01DX005 (ip), vehicle: saline 112 % of control and 113 % of control | dose: 100.0 mg/kg/injection, schedule: Q01DX005 (ip), vehicle: saline 122 % of control

O=C1CCCC2C3CC(CN12)C1CCCCN1C3 (configuration not stated)
inactive: [4] 100 % of control | [9] 120 % of control | [1] 105 % of control

CCOP(=S)(N/N=C(\C)c1ccncc1)OCC
inactive: dose: 50.0 mg/kg/injection, schedule: Q01DX005 (ip), vehicle: Klucel (hydroxypropylcellulose) (HPC) 112 % of control | dose: 100.0 mg/kg/injection, schedule: Q01DX005 (ip), vehicle: Klucel (hydroxypropylcellulose) (HPC) 107 % of control | dose: 200.0 mg/kg/injection, schedule: Q01DX005 (ip), vehicle: Klucel (hydroxypropylcellulose) (HPC) 115 % of control

CN1CCCSC1=S
inactive: dose: 6.25 mg/kg/injection, schedule: Q01DX009 (ip), vehicle: Klucel (hydroxypropylcellulose) (HPC) 111 % of control | dose: 12.5 mg/kg/injection, schedule: Q01DX009 (ip), vehicle: Klucel (hydroxypropylcellulose) (HPC) 97 % of control | dose: 25.0 mg/kg/injection, schedule: Q01DX009 (ip), vehicle: Klucel (hydroxypropylcellulose) (HPC) 106 % of control

CCOC(=O)C1CCC(=O)C(CC)=C1C (configuration not stated)
inactive: [5] 103 % of control | [6] 103 % of control | dose: 200.0 mg/kg/injection, schedule: Q01DX005 (ip), vehicle: saline with Tween-80 107 % of control

N#[N+]c1c(C(=O)O)[nH]c(=O)[nH]c1=O
inactive: dose: 16.0 mg/kg/injection, schedule: Q01DX009 (ip), vehicle: saline sonified 109 % of control | dose: 32.0 mg/kg/injection, schedule: Q01DX009 (ip), vehicle: saline sonified 104 % of control | dose: 64.0 mg/kg/injection, schedule: Q01DX009 (ip), vehicle: saline sonified 100 % of control | dose: 125.0 mg/kg/injection, schedule: Q01DX009 (ip), vehicle: saline sonified 104 % of control | dose: 250.0 mg/kg/injection, schedule: Q01DX009 (ip), vehicle: saline sonified 109 % of control | dose: 500.0 mg/kg/injection, schedule: Q01DX009 (ip), vehicle: saline sonified 104 % of control

O=C(Nc1ccc(Cl)cc1)O/N=C/c1ccc2c(c1)OCO2
inactive: [9] 93 % of control | [1] 91 % of control | [2] 86 % of control

O=C1CC2OCCC3CN4CCC56c7ccccc7N1C5C2C3CC46 (configuration not stated)
inactive: dose: 7.5 mg/kg/injection, schedule: Q01DX005 (ip), vehicle: Klucel (hydroxypropylcellulose) (HPC) 101 % of control | dose: 15.0 mg/kg/injection, schedule: Q01DX005 (ip), vehicle: Klucel (hydroxypropylcellulose) (HPC) 98 % of control | dose: 30.0 mg/kg/injection, schedule: Q01DX005 (ip), vehicle: Klucel (hydroxypropylcellulose) (HPC) 98 % of control
